# Test results: patent US20250144067A1, “PERSONALIZED STARVATION THERAPY FOR CANCER” (Faeth Therapeutics, Inc., priority 2021, published 2025)
# Structures can show the parent of a compound that is named as a salt.
# Assays:
# [1] = tested on: NCI-H292 lung cancer cells; test: FDA drug screening, complete media vs cholesterol-free media without statin (TABLE 1); type: cell-based, human
# [2] = tested on: NCI-H292 lung cancer cells; test: FDA drug screening, complete media vs cholesterol-free media with simvastatin (TABLE 2); type: cell-based, human; details: for Cholesterol-free media + simvastatin (0.04 μM) / Complete Media: NCI-H292 cells
# [3] = NCI-H292 cells, cholesterol-free media without statin, FDA drug library screen
# [4] = NCI-H292 cells, complete media, FDA drug library screen
# [5] = FDA library drug in cholesterol-free media with simvastatin 0.04 μM
# [6] = FDA library drug in complete media
# [7] = Complete minus Cholesterol-free, greater than 0 enhanced anti-cancer activity, about 0 neutral, below 0 antagonists
# [8] = NCI-H292 cells in cholesterol-free media without statin
# [9] = NCI-H292 cells in complete media
# [10] = complete media vs cholesterol-free media + simvastatin (0.04 μM), >0 enhanced anti-cancer activity, about 0 neutral, <0 antagonist
# [11] = FDA drug library screen, cholesterol-free media with simvastatin 0.04 μM
# [12] = FDA drug library screen, complete media
# [13] = Complete minus Cholesterol-free, >0 enhanced anti-cancer activity, about 0 neutral, <0 antagonist
# [14] = cholesterol-free media with simvastatin 0.04 μM, FDA drug library screen (TABLE 2)
# [15] = complete media, FDA drug library screen (TABLE 2)
# [16] = complete media minus cholesterol-free media + simvastatin (0.04 μM), >0 enhanced anti-cancer activity, about 0 neutral, <0 antagonist
# [17] = drug in cholesterol-free media with simvastatin 0.04 μM
# [18] = complete vs cholesterol-free media, >0 enhanced anti-cancer activity, about 0 neutral, <0 antagonist
# [19] = NCI-H292 cells, cholesterol-free media without statin
# [20] = complete vs cholesterol-free media, greater than 0 enhanced anti-cancer activity, about 0 neutral, below 0 antagonists
# [21] = cholesterol-free media with simvastatin 0.04 μM, cell growth value in FDA drug screen
# [22] = complete media, cell growth value in FDA drug screen
# [23] = complete media minus cholesterol-free media + simvastatin, >0 enhanced anti-cancer activity, about 0 neutral, <0 antagonist
# [24] = Complete minus Cholesterol-free, greater than 0 enhanced anti-cancer activity, about 0 neutral, below 0 antagonist
# [25] = NCI-H292 cells, FDA drug library screen, cholesterol-free media without statin
# [26] = NCI-H292 cells, FDA drug library screen, complete media
compound,measurement,setting,value
CN1C(=O)CCS(=O)(=O)C1c1ccc(Cl)cc1 (stereo not shown) [Chlormezanone],Cholesterol-free,[1]; [3],0.6871
same,Complete,[1]; [4],0.9881
same,Difference,"[1]; complete vs cholesterol-free media, […]",0.30
same,Cholesterol-free media + simvastatin (0.04 μM),[2]; [5],1.449
same,Complete Media,[2]; [6],1.114
same,Difference,"[2]; complete media vs cholesterol-free media + simvastatin (0.04 μM), […]",−0.34
CN1C(C(=O)Nc2ccccn2)=C(O)c2ccccc2S1(=O)=O [Piroxicam],Difference,[1]; [7],−0.71
same,Cholesterol-free,[1]; [8],1.552
same,Complete,[1]; [9],0.8427
same,Cholesterol-free media + simvastatin (0.04 μM),[2]; [5],1.433
same,Complete Media,[2]; [6],1.008
same,Difference,[2]; [10],−0.42
Nc1nc(=O)c2c([nH]1)NC[C@H](CNc1ccc(C(=O)N[C@@H](CCC(=O)[O-])C(=O)[O-])cc1)N2C=O.[Ca+2] [Levoleucovorin (Calcium)],Difference,"[1]; Complete minus Cholesterol-free, […]",−0.05
same,Cholesterol-free,[1]; [3],1.535
same,Complete,[1]; [4],1.487
same,Cholesterol-free media + simvastatin (0.04 μM),[2]; [11],1.534
same,Complete Media,[2]; [12],1.758
same,Difference,"[2]; complete media minus cholesterol-free media + simvastatin, […]",0.22
O=C1c2c(O)ccc(O)c2C(=O)c2c(NCCNCCO)ccc(NCCNCCO)c21 [Mitoxantrone],Difference,[1]; [13],−0.04
same,Cholesterol-free,[1]; [3],0.007289
same,Complete,[1]; [4],−0.03159
same,Cholesterol-free media + simvastatin (0.04 μM),[2]; [14],0.04539
same,Complete Media,[2]; [15],−0.01641
same,Difference,[2]; [16],−0.06
CCCN(CCc1cccs1)[C@H]1CCc2c(O)cccc2C1 [Rotigotine],Difference,[1]; [13],0.07
same,Cholesterol-free,[1]; [3],0.9004
same,Complete,[1]; [4],0.9685
same,Cholesterol-free media + simvastatin (0.04 μM),[2]; [14],1.128
same,Complete Media,[2]; [15],1.07
same,Difference,[2]; [16],−0.06
O=C(CO)[C@@H](O)[C@H](O)[C@H](O)CO [D-Fructose],Difference,[1]; [13],0.05
same,Cholesterol-free,[1]; [3],1.151
same,Complete,[1]; [4],1.203
same,Cholesterol-free media + simvastatin (0.04 μM),[2]; [17],1.284
same,Complete Media,[2]; drug in complete media,1.053
same,Difference,[2]; [10],−0.23
CC1(C)S[C@@H]2[C@H](NC(=O)[C@H](N)c3ccccc3)C(=O)N2[C@H]1C(=O)O [Ampicillin],Cholesterol-free,[1]; [3],0.9318
same,Complete,[1]; [4],1.363
same,Difference,[1]; [18],0.43
same,Cholesterol-free media + simvastatin (0.04 μM),[2]; [5],1.07
same,Complete Media,[2]; [6],0.7564
same,Difference,[2]; [10],−0.31
Nc1ccn(C[C@@H](CO)OCP(=O)(O)O)c(=O)n1 [Cidofovir],Cholesterol-free,[1]; [19],2.027
same,Complete,"[1]; NCI-H292 cells, complete media",1.556
same,Difference,[1]; [20],−0.47
same,Cholesterol-free media + simvastatin (0.04 μM),[2]; [21],0.9844
same,Complete Media,[2]; [22],1.01
same,Difference,[2]; [23],0.03
[H]/N=C(/N)N/C(=N/[H])NCCc1ccccc1 [Phenformin (hydrochloride)],Difference,[1]; [24],−0.12
same,Cholesterol-free,[1]; [25],0.9657
same,Complete,[1]; [26],0.8472
same,Cholesterol-free media + simvastatin (0.04 μM),[2]; [11],1.171
same,Complete Media,[2]; [12],1.373
same,Difference,[2]; [23],0.20
COc1cc(/C=C/C(=O)O)ccc1O.[Na] [Ferulic acid (sodium)],Cholesterol-free,[1]; [3],1.137
same,Complete,[1]; [4],1.309
same,Difference,[1]; [18],0.17
same,Cholesterol-free media + simvastatin (0.04 μM),[2]; [14],0.806
same,Complete Media,[2]; [15],0.766
same,Difference,[2]; [16],−0.04
CC#CCC(C)[C@H](O)/C=C/[C@@H]1[C@H]2C/C(=C/CCCC(=O)O)C[C@H]2C[C@H]1O (stereo partly shown) [Iloprost],Difference,[1]; [7],−0.58
same,Cholesterol-free,[1]; [8],1.473
same,Complete,[1]; [9],0.8944
same,Cholesterol-free media + simvastatin (0.04 μM),[2]; [17],1.189
same,Complete Media,[2]; drug in complete media,0.9963
same,Difference,[2]; [10],−0.19
CC[C@]12CCCN3CCc4c(n(c5ccccc45)[C@@](O)(C(=O)OC)C1)[C@@H]32 [Vincamine],Cholesterol-free,[1]; [3],0.6922
same,Complete,[1]; [4],1.178
same,Difference,[1]; [18],0.49
same,Cholesterol-free media + simvastatin (0.04 μM),[2]; [14],0.8199
same,Complete Media,[2]; [15],0.7686
same,Difference,[2]; [16],−0.05
O=C(O)c1ccccc1O [Salicylic acid],Difference,[1]; [24],−0.09
same,Cholesterol-free,[1]; [25],0.9773
same,Complete,[1]; [26],0.8829
same,Cholesterol-free media + simvastatin (0.04 μM),[2]; [11],0.9788
same,Complete Media,[2]; [12],0.8703
same,Difference,[2]; [10],−0.11
Nc1nc2c(ncn2CCC(CO)CO)c(=O)[nH]1 [Penciclovir],Cholesterol-free,[1]; [19],0.9605
same,Complete,"[1]; NCI-H292 cells, complete media",0.6394
same,Difference,[1]; [20],−0.32
same,Cholesterol-free media + simvastatin (0.04 μM),[2]; [14],1.351
same,Complete Media,[2]; [15],1.353
same,Difference,[2]; [16],0.00
CCN(CC)CCOC(=O)C(c1ccccc1)C1CCCCC1 (stereo not shown) [Drofenine (hydrochloride)],Difference,[1]; [7],−0.55
same,Cholesterol-free,[1]; [8],1.437
same,Complete,[1]; [9],0.8908
same,Cholesterol-free media + simvastatin (0.04 μM),[2]; [21],1.111
same,Complete Media,[2]; [22],1.144
same,Difference,[2]; [23],0.03
CC(C)(S)[C@@H](N)C(=O)O [Penicillamine],Difference,[1]; [7],−0.55
same,Cholesterol-free,[1]; [8],1.556
same,Complete,[1]; [9],1.005
same,Cholesterol-free media + simvastatin (0.04 μM),[2]; [17],1.252
same,Complete Media,[2]; drug in complete media,1.083
same,Difference,[2]; [10],−0.17
C=CCNc1nc(NCC=C)nc(N2CCN(C(c3ccc(F)cc3)c3ccc(F)cc3)CC2)n1 [Almitrine mesylate],Cholesterol-free,[1]; [3],0.7257
same,Complete,[1]; [4],0.8177
same,Difference,[1]; [18],0.09
same,Cholesterol-free media + simvastatin (0.04 μM),[2]; [11],0.7616
same,Complete Media,[2]; [12],0.6708
same,Difference,[2]; [10],−0.09
CC[C@]12CCCN3CCc4c(n(c5ccccc45)C(=O)C1)[C@@H]32 [Vinburnine],Cholesterol-free,[1]; [3],0.8229
same,Complete,[1]; [4],1.424
same,Difference,[1]; [18],0.60
same,Cholesterol-free media + simvastatin (0.04 μM),[2]; [11],1.049
same,Complete Media,[2]; [12],1.235
same,Difference,[2]; [23],0.19
OC[C@@H](O)[C@H](O)[C@@H](O)CO [Xylitol],Difference,[1]; [13],−0.26
same,Cholesterol-free,[1]; [19],1.384
same,Complete,"[1]; NCI-H292 cells, complete media",1.123
same,Cholesterol-free media + simvastatin (0.04 μM),[2]; [17],1.234
same,Complete Media,[2]; drug in complete media,1.073
same,Difference,[2]; [10],−0.16
Bephenium (hydroxynaphthoate),Complete,"[1]; NCI-H292 cells, complete media",0.7234
same,Difference,[1]; [20],−0.43
same,Cholesterol-free media + simvastatin (0.04 μM),[2]; [17],1.634
same,Complete Media,[2]; drug in complete media,1.472
same,Difference,[2]; [10],−0.16
CC(S)C(=O)NCC(=O)O (stereo not shown) [Tiopronin],Difference,[1]; [13],−0.20
same,Cholesterol-free,[1]; [19],0.9241
same,Complete,"[1]; NCI-H292 cells, complete media",0.7208
same,Cholesterol-free media + simvastatin (0.04 μM),[2]; [21],1.026
same,Difference,[2]; [23],0.12
CCC1(c2ccccc2)NC(=O)N(C)C1=O (stereo not shown) [Mephenytoin],Difference,[1]; [7],−0.62
same,Cholesterol-free,[1]; [8],1.604
same,Complete,[1]; [9],0.9878
same,Cholesterol-free media + simvastatin (0.04 μM),[2]; [5],1.274
same,Complete Media,[2]; [6],1.003
same,Difference,[2]; [10],−0.27
COc1cc([C@@H]2c3cc4c(cc3[C@@H](O[C@@H]3O[C@@H]5CO[C@@H](C)O[C@H]5[C@H](O)[C@H]3O)[C@H]3COC(=O)[C@H]23)OCO4)cc(OC)c1OP(=O)(O)O [Etoposide phosphate],Difference,[1]; [24],−0.10
same,Cholesterol-free,[1]; [25],0.7876
same,Complete,[1]; [26],0.6917
same,Cholesterol-free media + simvastatin (0.04 μM),[2]; [17],0.9468
same,Complete Media,[2]; drug in complete media,0.7461
same,Difference,[2]; [10],−0.20
